Reference: patent publication US20160222056A1, “SUBSTITUTED PHENYLALANINE DERIVATIVES” (BAYER PHARMA AKTIENGESELLSCHAFT, priority 2013, published 2016)
Where a name gives a salt, the structure may show the parent alone.

What was measured:
[1] = test system: human and animal plasma; test: Anticoagulatory activity: activated partial thromboplastin time (aPTT) in plasma; format: biochemical; conditions: in vitro in plasma, C.K. Prest kit, 37° C. for 3 minutes; plasma species of Table B not stated
Experimental: The anticoagulatory activity of the test substances is determined in vitro in human and animal plasma (for example mouse, rat, rabbit, pig and dog plasma). To this end, blood is drawn off in a mixing ratio of sodium citrate/blood of 1:9 using a 0.11 molar sodium citrate solution as receiver. Immediately after the blood has been drawn off, it is mixed thoroughly and centrifuged at about 4000 g for 15 minutes. The supernatant is pipetted off.
The activated partial thromboplastin time (aPTT) is determined in the presence of varying concentrations of test substance or the corresponding solvent using a commercial test kit (C.K. Prest from Diagnostica Stago). The test compounds are incubated with the plasma and the PTT reagent (cephalin, kaolin) at 37° C. for 3 minutes. Coagulation is then started by addition of 25 mM aqueous calcium chloride, and the time when coagulation occurs is determined. The concentration of test substance which brings about a 1.5-fold extension of the aPTT is determined.

[2] = target: T1, human factor XIa (Homo sapiens, UniProt P03951); test: Measurement of FXIa inhibition (fluorogenic peptide substrate); format: biochemical; conditions: human factor XIa from Kordia, substrate Boc-Glu(OBzl)-Ala-Arg-AMC, 30 min at 22° C.; read-out: IC50 (FXIa inhibition)
T1 construct: purchased Kordia
T1 sequence (P03951 388-625 limits assumed): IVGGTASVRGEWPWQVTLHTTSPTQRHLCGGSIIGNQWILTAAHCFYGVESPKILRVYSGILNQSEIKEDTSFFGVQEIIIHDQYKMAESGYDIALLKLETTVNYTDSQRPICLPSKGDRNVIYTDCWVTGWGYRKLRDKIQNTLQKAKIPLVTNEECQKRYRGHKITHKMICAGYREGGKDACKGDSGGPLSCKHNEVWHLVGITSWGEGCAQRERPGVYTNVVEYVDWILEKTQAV
T1 sequence (P03951 19-387 partner limits assumed): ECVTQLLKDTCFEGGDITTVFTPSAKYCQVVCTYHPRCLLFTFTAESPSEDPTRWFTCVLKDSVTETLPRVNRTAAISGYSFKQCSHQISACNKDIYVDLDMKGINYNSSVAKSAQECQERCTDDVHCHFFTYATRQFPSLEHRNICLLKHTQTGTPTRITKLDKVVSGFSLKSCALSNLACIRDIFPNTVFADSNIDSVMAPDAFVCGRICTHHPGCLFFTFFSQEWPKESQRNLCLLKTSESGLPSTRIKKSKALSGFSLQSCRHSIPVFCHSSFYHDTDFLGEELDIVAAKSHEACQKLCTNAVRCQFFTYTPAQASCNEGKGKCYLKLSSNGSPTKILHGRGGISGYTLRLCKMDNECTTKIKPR
Experimental: To determine the factor XIa inhibition of the substances according to the invention, a biochemical test system is used which utilizes the reaction of a peptidic factor XIa substrate to determine the enzymatic activity of human factor XIa. Here, factor XIa cleaves from the peptic factor XIa substrate the C-terminal aminomethylcoumarin (AMC), the fluorescence of which is measured. The determinations are carried out in microtitre plates.
Test substances are dissolved in dimethyl sulphoxide and serially diluted in dimethyl sulphoxide (3000 μM to 0.0078 μM; resulting final concentrations in the test: 50 μM to 0.00013 μM). In each case 1 μl of the diluted substance solutions are placed into the wells of white microtitre plates from Greiner (384 wells). Subsequently, the following are added successively: 20 μl of assay buffer (50 mmol/1 Tris buffer pH 7.4; 100 mmol/1 sodium chloride; 5 mmol/1 calcium chloride; 0.1% bovine serum albumin) and 20 μl of factor XIa from Kordia (0.45 nM in assay buffer). After 15 min of incubation, the enzyme reaction is started by addition of 20 μl of the factor XIa substrate Boc-Glu(OBzl)-Ala-Arg-AMC dissolved in assay buffer (10 μM in assay buffer) from Bachem, the mixture is incubated at room temperature (22° C.) for 30 min and fluorescence is then measured (excitation: 360 nm, emission: 460 nm). The measured emissions of the test batches with test substance are compared to those of control batches without test substance (only dimethyl sulphoxide instead of test substance in dimethyl sulphoxide), and the IC50 values are calculated from the concentration/activity relationships.

Question: Which results are given for Cc1cc(C(=O)N[C@H]2CC[C@H](N3CCOCC3)CC2)ncc1-c1ccc(C[C@H](NC(=O)[C@H]2CC[C@H](CN)CC2)C(=O)Nc2ccc(-c3nnn[nH]3)cc2)cc1 [Example 13, N-alpha-{[trans-4-(Aminomethyl)cyclohexyl]carbonyl}-4-(4-methyl-6-{[trans-4-(morpholin-4-yl)cyclohexyl]carbamoyl}pyridin-3-yl)-N-[4-(1H-tetrazol-5-yl)phenyl]-L-phenylalaninamide hydrochloride]?
Answer: aPTT (concentration of test substance which brings about a 1.5-fold extension of the aPTT) [1]: 0.08 µmol/L; IC50 [2]: 0.9 nM

Question: How did the “aPTT (concentration of test substance which brings about a 1.5-fold extension of the aPTT)” value [1] turn out when Cc1nc(C(=O)NC2C3CNCC32)ccc1-c1ccc(C[C@H](NC(=O)[C@H]2CC[C@H](CN)CC2)C(=O)Nc2ccc(-c3nn[nH]n3)cc2)cc1 (stereo partly drawn) [Example 16, N-alpha-{[trans-4-(Aminomethyl)cyclohexyl]carbonyl}-4-[6-(3-azabicyclo[3.1.0]hex-6-ylcarbamoyl)-2-methylpyridin-3-yl]-N-[4-(2H-tetrazol-5-yl)phenyl]-L-phenylalaninamide hydrochloride] was run?
Answer: 0.11 µmol/L

Question: What about the IC50 [2] of the same compound?
Answer: 8.1 nM

Question: Which results are given for CCN(CC)CCNC(=O)c1ccc(-c2ccc(C[C@H](NC(=O)[C@H]3CC[C@H](CN)CC3)C(=O)Nc3ccc(-c4nn[nH]n4)cc3)cc2)c(C(F)(F)F)n1 [Example 1, N-alpha-{[trans-4-(Aminomethyl)cyclohexyl]carbonyl}-4-[6-{[2-(diethylamino)ethyl]carbamoyl}-2-(trifluoromethyl)pyridin-3-yl]-N-[4-(2H-tetrazol-5-yl)phenyl]-L-phenylalaninamide hydrochloride]?
Answer: aPTT (concentration of test substance which brings about a 1.5-fold extension of the aPTT) [1]: 0.1 µmol/L; IC50 [2]: 2 nM

Question: How did the “aPTT (concentration of test substance which brings about a 1.5-fold extension of the aPTT)” value [1] turn out when Cc1cc(C(=O)N[C@@H]2CCCNC2=O)ncc1-c1ccc(C[C@H](NC(=O)[C@H]2CC[C@H](CN)CC2)C(=O)Nc2ccc(-c3nnn[nH]3)cc2)cc1 [Example 21, N-alpha-{[trans-4-(Aminomethyl)cyclohexyl]carbonyl}-4-(4-methyl-6-{[(3R)-2-oxopiperidin-3-yl]carbamoyl}pyridin-3-yl)-N-[4-(1H-tetrazol-5-yl)phenyl]-L-phenylalaninamide hydrochloride] was run?
Answer: 0.15 µmol/L

Question: What about the IC50 [2] of the same compound?
Answer: 1.3 nM

Question: How did the “aPTT (concentration of test substance which brings about a 1.5-fold extension of the aPTT)” value [1] turn out when Cc1nc(C(=O)NC2CCC(N(C)C)CC2)ccc1-c1ccc(C[C@H](NC(=O)[C@H]2CC[C@H](CN)CC2)C(=O)Nc2ccc3[nH]c(=O)[nH]c3c2)cc1 (stereo partly drawn) [Example 27, N-alpha-{[trans-4-(Aminomethyl)cyclohexyl]carbonyl}-4-(6-{[4-(dimethylamino)cyclohexyl]-carbamoyl}-2-methylpyridin-3-yl)-N-(2-oxo-2,3-dihydro-1H-benzimidazol-5-yl)-L-phenylalaninamide hydrochloride] was run?
Answer: 0.22 µmol/L

Question: And the IC50 [2]?
Answer: 19 nM

Question: Cc1nc(C(=O)N[C@H]2CCNC2)ccc1-c1ccc(C[C@H](NC(=O)[C@H]2CC[C@H](CN)CC2)C(=O)Nc2ccc(-c3nn[nH]n3)cc2)cc1 [Example 15, N-alpha-{[trans-4-(Aminomethyl)cyclohexyl]carbonyl}-4-{2-methyl-6-[(3S)-pyrrolidin-3-ylcarbamoyl]pyridin-3-yl}-N-[4-(2H-tetrazol-5-yl)phenyl]-L-phenylalaninamide hydrochloride] was tested. Which “aPTT (concentration of test substance which brings about a 1.5-fold extension of the aPTT)” value [1] did it give?
Answer: 0.1 µmol/L

Question: What about the IC50 [2] of the same compound?
Answer: 3.2 nM

Question: How did the “aPTT (concentration of test substance which brings about a 1.5-fold extension of the aPTT)” value [1] turn out when Cc1cc(C(=O)NC2CCNCC2)ncc1-c1ccc(C[C@H](NC(=O)[C@H]2CC[C@H](CN)CC2)C(=O)Nc2ccc(-c3nnn[nH]3)cc2)cc1 [Example 5, N-alpha-{[trans-4-(Aminomethyl)cyclohexyl]carbonyl}-4-[4-methyl-6-(piperidin-4-ylcarbamoyl)pyridin-3-yl]-N-[4-(1H-tetrazol-5-yl)phenyl]-L-phenylalaninamide hydrochloride] was run?
Answer: 0.04 µmol/L

Question: What about the IC50 [2] of the same compound?
Answer: 1.9 nM

Question: Which “aPTT (concentration of test substance which brings about a 1.5-fold extension of the aPTT)” value [1] does the source give for Cc1nc(C(=O)NC2CCC(N(C)C)CC2)ccc1-c1ccc(C[C@H](NC(=O)[C@H]2CC[C@H](CN)CC2)C(=O)Nc2ccc(-c3nn[nH]n3)cc2)cc1 (stereo partly drawn) [Example 2, N-alpha-{[trans-4-(Aminomethyl)cyclohexyl]carbonyl}-4-(6-{[4-(dimethylamino)cyclohexyl]-carbamoyl}-2-methylpyridin-3-yl)-N-[4-(2H-tetrazol-5-yl)phenyl]-L-phenylalaninamide hydrochloride] here?
Answer: 0.08 µmol/L

Question: What about the IC50 [2] of the same compound?
Answer: 1.9 nM

Question: What does the source list for Cc1nc(C(=O)N[C@H]2CCNC2)ccc1-c1ccc(C[C@H](NC(=O)[C@H]2CC[C@H](CN)CC2)C(=O)Nc2ccc3[nH]c(=O)[nH]c3c2)cc1 [Example 14, N-alpha-{[trans-4-(Aminomethyl)cyclohexyl]carbonyl}-4-{2-methyl-6-[(3S)-pyrrolidin-3-ylcarbamoyl]pyridin-3-yl}-N-(2-oxo-2,3-dihydro-1H-benzimidazol-5-yl)-L-phenylalaninamide hydrochloride]?
Answer: aPTT (concentration of test substance which brings about a 1.5-fold extension of the aPTT) [1]: 0.08 µmol/L; IC50 [2]: 30 nM

Question: How did the “aPTT (concentration of test substance which brings about a 1.5-fold extension of the aPTT)” value [1] turn out when Cc1nc(C(=O)N[C@H]2CCCNC2=O)ccc1-c1ccc(C[C@H](NC(=O)[C@H]2CC[C@H](CN)CC2)C(=O)Nc2ccc(-c3nn[nH]n3)cc2)cc1 [Example 4, N-alpha-{[trans-4-(Aminomethyl)cyclohexyl]carbonyl}-4-(2-methyl-6-{[(3S)-2-oxopiperidin-3-yl]carbamoyl}pyridin-3-yl)-N-[4-(2H-tetrazol-5-yl)phenyl]-L-phenylalaninamide hydrochloride] was run?
Answer: 0.2 µmol/L

Question: What about the IC50 [2] of the same compound?
Answer: 1.3 nM

Question: Which results are given for Cc1cc(C(=O)NC2CCNCC2F)ncc1-c1ccc(C[C@H](NC(=O)C2CCC(CN)CC2)C(=O)Nc2ccc(-c3nnn[nH]3)cc2)cc1 (stereo partly drawn) [Example 8, N-alpha-{[trans-4-(Aminomethyl)cyclohexyl]carbonyl}-4-{6-[(3-fluoropiperidin-4-yl)carbamoyl]-4-methylpyridin-3-yl}-N-[4-(1H-tetrazol-5-yl)phenyl]-L-phenylalaninamide hydrochloride]?
Answer: aPTT (concentration of test substance which brings about a 1.5-fold extension of the aPTT) [1]: 0.05 µmol/L; IC50 [2]: 2.2 nM

Question: Cc1cc(C(=O)N[C@@H]2CCCNC2=O)ncc1-c1ccc(C[C@H](NC(=O)[C@H]2CC[C@H](CN)CC2)C(=O)Nc2ccc3[nH]c(=O)[nH]c3c2)cc1 [Example 28, N-alpha-{[trans-4-(Aminomethyl)cyclohexyl]carbonyl}-4-(4-methyl-6-{[(3R)-2-oxopiperidin-3-yl]carbamoyl}pyridin-3-yl)-N-(2-oxo-2,3-dihydro-1H-benzimidazol-5-yl)-L-phenylalaninamide hydrochloride] was tested. Which “aPTT (concentration of test substance which brings about a 1.5-fold extension of the aPTT)” value [1] did it give?
Answer: 0.39 µmol/L

Question: What about the IC50 [2] of the same compound?
Answer: 20 nM

Question: Cc1cc(C(=O)NC2CC3COCC(C2)N3)ncc1-c1ccc(C[C@H](NC(=O)C2CCC(CN)CC2)C(=O)Nc2ccc(-c3nnn[nH]3)cc2)cc1 (stereo partly drawn) [Example 11, N-alpha-{[trans-4-(Aminomethyl)cyclohexyl]carbonyl}-4-[4-methyl-6-(3-oxa-9-azabicyclo[3.3.1]non-7-ylcarbamoyl)pyridin-3-yl]-N-[4-(1H-tetrazol-5-yl)phenyl]-L-phenylalaninamide hydrochloride] was tested. Which “aPTT (concentration of test substance which brings about a 1.5-fold extension of the aPTT)” value [1] did it give?
Answer: 0.07 µmol/L

Question: What about the IC50 [2] of the same compound?
Answer: 5.2 nM
